Numbered stars: 1 amine (or outer) side, 2 acyl side, 3 side chain; on linkers, the order of the positions; unused ones are H or OH. Bridge positions count the residues as written; N and C are the ends. Square brackets hold non-standard residues; d marks the D form. Peptide text beside a SMILES is read from it. * marks the point of attachment. hPhe(3-Cl-4-CF3) = N[C@@H](CCc1ccc(C(F)(F)F)c(Cl)c1)C(=O)O; hPhe(3-F,4-CF3) = N[C@@H](CCc1ccc(C(F)(F)F)c(F)c1)C(=O)O; NMeAbu(4,4,4-F3) = CN[C@@H](CC(F)(F)F)C(=O)O; NMePhe(4-Cl) = CN[C@@H](Cc1ccc(Cl)cc1)C(=O)O; NMePhe(4-Me) = CN[C@@H](Cc1ccc(C)cc1)C(=O)O; NMedβ3hAla = C[C@H](CC(=O)[*:2])N(C)[*:1]; NMeGly(cPent) = CN[C@H](C(=O)O)C1CCCC1; NMeCha = CN[C@@H](CC1CCCCC1)C(=O)O; Hyp = O=C(O)[C@@H]1C[C@@H](O)CN1; NMeChg = CN[C@H](C(=O)O)C1CCCCC1; NMeD = CN[C@@H](CC(=O)O)C(=O)O; NMeL = CN[C@@H](CC(C)C)C(=O)O; NMeV = CN[C@H](C(=O)O)C(C)C; d(β3hA) = C[C@@H](N)CC(=O)O; Pip = O=C(O)[C@@H]1CCCCN1; dPip = O=C(O)[C@H]1CCCCN1; Morpholide = C1CN(*)CCO1; NMeA = CN[C@@H](C)C(=O)O; NMeAib = CNC(C)(C)C(=O)O; Nle = CCCC[C@H](N)C(=O)O; Piperidide = C1CCN(*)CC1; Pyrrolidide = C1CCN(*)C1; dNMeA = CN[C@H](C)C(=O)O; Ac5c = NC1(C(=O)O)CCCC1; Aze = O=C(O)[C@@H]1CCN1; Sar = CNCC(=O)O
Columns and labels:
[1] = biological target: protein-protein interaction between Kras and SOS1 (biotin-tagged human Kras loaded with GDP, His-tagged human SOS1) (Homo sapiens (Human), UniProt P01116, G12D); experiment: Protein-protein interaction inhibition between Kras and SOS1 (KrasG12D-SOS PPI) using AlphaScreen; type: biochemical; settings: AlphaScreen; biotin-tagged human Kras loaded with GDP, His-tagged human SOS1; read-out: KRAS G12D-SOS PPI IC50;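 also: kras produced in E. coli, Ni-coupled donor beads and streptavidin acceptor beads, excitation 680 nm with emission detected at 520–620 nm via singlet oxygen transfer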
[2] = tested on: Human pancreatic cancer cell line AsPC-1 (G12D mutation Kras); experiment: AsPC-1 cell growth inhibition (AsPC-1 CGI); type: cell-based; settings: read-out: AsPC-1 cell growth inhibition, 50% growth inhibitory concentration (IC50 value); 96 hours, CellTiter-Glo, values classified in ranges

SMILES	IC50 [1]	IC50 [2]
CC[C@H](C)[C@@H]1NC(=O)[C@H](C)N(C)C(=O)C[C@@H](C(=O)N2CCCCC2)N(C)C(=O)[C@H](C(C)C)N(C)C(=O)C2(CCCC2)NC(=O)[C@@H]2CCCN2C(=O)[C@H](CCc2ccc(C(F)(F)F)c(Cl)c2)NC(=O)[C@H]2CCCCN2C(=O)[C@H](CC2CCCCC2)N(C)C(=O)[C@@H]2CCCN2C(=O)CN(C)C1=O [Compound 823] ([NMeA]I[Sar]P[NMeCha][dPip][hPhe(3-Cl-4-CF3)]P[Ac5c][NMeV][NMeD]-Piperidide; lactam N-11)	16 nM	> 500 nM
CCO[C@@H]1C[C@H]2C(=O)NC3(CCCC3)C(=O)N(C)[C@@H](C3CCCCC3)C(=O)N(C)[C@H](C(=O)N3CCCC3)CC(=O)N(C)[C@@H](CC(F)(F)F)C(=O)N[C@@H]([C@@H](C)CC)C(=O)N(C)CC(=O)N(C)CC(=O)N(C)[C@@H](Cc3ccc(C)cc3)C(=O)N(C)CC(=O)N[C@@H](CCc3ccc(C(F)(F)F)c(Cl)c3)C(=O)N2C1 [Compound 1339] ([NMeAbu(4,4,4-F3)]I[Sar][Sar][NMePhe(4-Me)][Sar][hPhe(3-Cl-4-CF3)][Hyp](Et)[Ac5c][NMeChg][NMeD]-Pyrrolidide; lactam N-11)	0.57 nM	≤ 20 nM
CCCC[C@@H]1NC(=O)[C@H](CCc2ccc(C(F)(F)F)c(Cl)c2)NC(=O)CN(C)C(=O)[C@H](Cc2ccc(Cl)cc2)N(C)C(=O)[C@@H]2CCN2C(=O)[C@H](C)N(C)C(=O)[C@H]([C@@H](C)CC)NC(=O)[C@@H]2CCCCN2C(=O)C[C@@H](C(=O)N2CCCCC2)N(C)C(=O)[C@H](CC(C)C)NC(=O)C(C)(C)N(C)C1=O [Compound 103] ([Pip]I[NMeA][Aze][NMePhe(4-Cl)][Sar][hPhe(3-Cl-4-CF3)][Nle][NMeAib]L[NMeD]-Piperidide; lactam N-11)	22 nM	> 500 nM
CC(C)C[C@H]1C(=O)N[C@@H](C)C(=O)N(C)[C@@H](C)C(=O)N2CC[C@H]2C(=O)N(C)[C@@H](CC2CCCCC2)C(=O)N(C)CC(=O)N[C@@H](CCc2ccc(C(F)(F)F)c(Cl)c2)C(=O)N2CCC[C@H]2C(=O)NC2(CCCC2)C(=O)N(C)[C@@H](C(C)C)C(=O)N(C)[C@H](C(=O)N2CCCCC2)CC(=O)N1C [Compound 1780] ([NMeL]A[NMeA][Aze][NMeCha][Sar][hPhe(3-Cl-4-CF3)]P[Ac5c][NMeV][NMeD]-Piperidide; lactam N-11)	120 nM	> 500 nM
CC[C@H](C)[C@@H]1NC(=O)[C@H](CC(C)C)N(C)C(=O)C[C@@H](C)N(C)C(=O)[C@H](CC(C)C)NC(=O)C(C)(C)N(C)C(=O)[C@H](CC(C)C)NC(=O)[C@H](CCc2ccc(C(F)(F)F)c(F)c2)NC(=O)CN(C)C(=O)[C@H](CC2CCCCC2)N(C)C(=O)CN(C)C(=O)CN(C)C1=O [Compound 883] (cyclo(I[Sar][Sar][NMeCha][Sar][hPhe(3-F,4-CF3)]L[NMeAib]L[NMedβ3hAla][NMeL]))	49 nM	> 500 nM
CC[C@H](C)[C@@H]1NC(=O)[C@H](CC(C)C)N(C)C(=O)C[C@@H](C(=O)N2CCOCC2)N(C)C(=O)[C@H](C2CCCC2)N(C)C(=O)C2(CCCC2)NC(=O)[C@@H]2CCCN2C(=O)[C@H](CCc2ccc(C(F)(F)F)c(F)c2)NC(=O)CN(C)C(=O)[C@H](C2CCCC2)N(C)C(=O)[C@@H]2CCN2C(=O)[C@H](C)N(C)C1=O [Compound 871] ([NMeL]I[NMeA][Aze][NMeGly(cPent)][Sar][hPhe(3-F,4-CF3)]P[Ac5c][NMeGly(cPent)][NMeD]-Morpholide; lactam N-11)	0.78 nM	≤ 20 nM
CC[C@H](C)[C@@H]1NC(=O)[C@H](CC(C)C)N(C)C(=O)C[C@@H](C(=O)N2CCCCC2)N(C)C(=O)[C@H](C(C)C)N(C)C(=O)[C@@H](C)NC(=O)[C@@H]2CCCN2C(=O)[C@H](CCc2ccc(C(F)(F)F)c(Cl)c2)NC(=O)CN(C)C(=O)[C@H](CC2CCCCC2)N(C)C(=O)[C@@H]2CCN2C(=O)[C@H](C)N(C)C1=O [Compound 1174] ([NMeL]I[NMeA][Aze][NMeCha][Sar][hPhe(3-Cl-4-CF3)]P[dA][NMeV][NMeD]-Piperidide; lactam N-11)	62 nM	> 500 nM
CC[C@H](C)[C@@H]1NC(=O)[C@H](C)N(C)C(=O)C[C@@H](C)NC(=O)[C@H](C2CCCC2)N(C)C(=O)C2(CCCC2)NC(=O)[C@@H]2CCCN2C(=O)[C@H](CCc2ccc(C(F)(F)F)c(Cl)c2)NC(=O)[C@@H](C)N(C)C(=O)[C@H](Cc2ccc(Cl)cc2)N(C)C(=O)[C@@H]2CCN2C(=O)[C@H](C)N(C)C1=O [Compound 720] (cyclo([Ac5c][NMeGly(cPent)][d(β3hA)][NMeA]I[NMeA][Aze][NMePhe(4-Cl)][dNMeA][hPhe(3-Cl-4-CF3)]P))	39 nM	> 500 nM
